{"source": "patent EP4711367A1", "about": "“PYRAZOLOPYRAZINE COMPOUND AND METHOD FOR PREPARING CRYSTAL FORM THEREOF” (CMS Research & Development Pte. Ltd., priority 2023, dated 2024)", "key": {"[1]": {"test_system": "IL-23-induced epidermal hyperplasia model of the mouse ear pinna", "experiment": "Pharmacodynamic test of psoriasis model in mice (IL-23 injected into the ear pinna)", "type": "in vivo, C57BL/6 mouse", "settings": "for Ear thickness (mm)/day: right ear", "description": "Objective: The purpose of this experiment is to evaluate the preventive and therapeutic effects of the test substance on IL-23-induced psoriasis-like skin lesions in mice, which were established by intradermal injection of IL-23 into the mouse ear pinna.\nMethods: After the acclimation period, 50 mice were divided into 5 groups of 10 each by Excel complete randomization, namely: vehicle (0.5% MC & 0.5% Tween 80) control group, model group, and compound of formula (I) (10, 20, 50 mg/kg) groups. Except for the vehicle control group, the remaining groups were intradermally injected with IL-23 (3 µg/10 µL/mouse/day, QD) in the right ear for 8 consecutive days (D1 to D8), while the control group animals were intradermally injected with an equal volume of normal saline solution (10 µL/mouse/day, QD) in the right ear for 8 consecutive days (D1 to D8). During the modeling period, the vehicle or test drug was orally administered twice daily (Bid) at 6-hour intervals for 8 consecutive days (D1 to D8). During the administration period, the body weight of the animals was monitored every two days. On D1, D3, D5, D7 (all before IL-23 injection), and D9, the thickness of the right ear of the mice was measured, and the appearance of the ear pinna was scored. At the end of the experiment (Day 10), the modeled ear was excised, and an ear piece was punched along the ear pinna edge using an 8 mm punch and weighed. The punched right ear piece was fixed with formalin and subjected to histopathological examination (H&E) staining."}, "JAK3(h)": {"target": "T1, JAK3(h) (Homo sapiens, UniProt P52333)", "T1 construct": "purchased Eurofins (UK)", "T1 sequence (P52333 1-1124)": "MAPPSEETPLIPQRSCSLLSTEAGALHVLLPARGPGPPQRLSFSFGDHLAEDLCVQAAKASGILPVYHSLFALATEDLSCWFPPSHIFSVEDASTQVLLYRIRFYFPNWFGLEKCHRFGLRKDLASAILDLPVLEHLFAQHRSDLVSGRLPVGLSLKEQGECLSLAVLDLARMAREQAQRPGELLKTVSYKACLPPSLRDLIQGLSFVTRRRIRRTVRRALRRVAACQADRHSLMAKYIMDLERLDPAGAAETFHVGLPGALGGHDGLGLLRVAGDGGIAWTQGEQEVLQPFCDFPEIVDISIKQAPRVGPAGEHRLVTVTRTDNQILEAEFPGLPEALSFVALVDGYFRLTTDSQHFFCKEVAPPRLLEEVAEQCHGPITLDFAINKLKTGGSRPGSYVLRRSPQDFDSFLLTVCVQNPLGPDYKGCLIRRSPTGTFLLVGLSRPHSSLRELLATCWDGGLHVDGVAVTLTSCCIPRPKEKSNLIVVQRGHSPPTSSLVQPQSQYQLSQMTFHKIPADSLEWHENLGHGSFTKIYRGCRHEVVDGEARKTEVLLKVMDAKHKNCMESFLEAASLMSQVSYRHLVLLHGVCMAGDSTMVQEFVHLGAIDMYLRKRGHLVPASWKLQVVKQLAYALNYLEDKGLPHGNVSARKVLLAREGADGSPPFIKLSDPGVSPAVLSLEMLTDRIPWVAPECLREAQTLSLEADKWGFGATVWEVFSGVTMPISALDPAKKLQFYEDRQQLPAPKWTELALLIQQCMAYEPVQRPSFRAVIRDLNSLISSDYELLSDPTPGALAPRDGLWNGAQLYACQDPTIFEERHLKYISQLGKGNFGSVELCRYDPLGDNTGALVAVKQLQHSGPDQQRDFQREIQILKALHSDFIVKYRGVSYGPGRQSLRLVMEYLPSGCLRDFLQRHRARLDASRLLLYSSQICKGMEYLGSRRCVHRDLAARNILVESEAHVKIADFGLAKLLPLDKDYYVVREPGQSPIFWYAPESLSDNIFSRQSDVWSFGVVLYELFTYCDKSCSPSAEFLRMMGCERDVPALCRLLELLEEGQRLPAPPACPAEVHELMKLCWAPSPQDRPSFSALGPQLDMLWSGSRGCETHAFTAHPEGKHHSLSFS", "experiment": "In vitro activity test of JAK3 kinase ([γ-33P]-ATP filter assay, Eurofins)", "type": "biochemical", "description": "Recombinant human JAK1, JAK2, JAK3, and Tyk2 proteases, along with major instruments and reagents, were provided by Eurofins in the UK. JAK2, JAK3, and TYK2 were diluted with: 20 mM 3-(N-morpholino)propanesulfonic acid (MOPS), 1 mM EDTA, 0.01% Brij-35.5% glycerol, 0.1% β-mercaptoethanol, 1 mg/mL BSA; JAK1 was diluted with: 20 mM TRIS, 0.2 mM EDTA, 0.1% β-mercaptoethanol, 0.01% Brij-35.5% glycerol. The compound of formula (I) was prepared as a 100% DMSO solution and diluted to 50 times the final assay concentration. The test compound was subjected to a 3-fold serial dilution, with final concentrations ranging from 10 µM to 0.001 µM across 9 concentrations, and the DMSO content in the detection reaction was 2%. The working stock solution of this compound was added as the first component of the reaction to the assay wells, followed by the addition of the remaining components according to the protocol detailed below. JAK3(h) was incubated with 8 mM MOPS pH 7.0, 0.2 mM EDTA, 500 µM GGEEEEYFELVKKKK, 10 mM magnesium acetate, and [γ-^33P]-ATP (activity and concentration were adjusted as needed). The reaction was initiated by adding the Mg/ATP mixture and incubated at room temperature for 40 minutes, then terminated by adding 0.5% phosphoric acid. […] The IC50 results were analyzed using XLFIT5 (205 formula) from IDBS, as detailed in Table 12. […]"}, "[2]": {"settings": "10 mg/kg oral gavage twice daily for 8 days, day 1"}, "[3]": {"settings": "10 mg/kg oral gavage twice daily for 8 days, day 3"}, "[4]": {"settings": "10 mg/kg oral gavage twice daily for 8 days, day 5"}, "[5]": {"settings": "10 mg/kg oral gavage twice daily for 8 days, day 7"}, "[6]": {"settings": "10 mg/kg oral gavage twice daily for 8 days, day 9"}, "[7]": {"settings": "20 mg/kg oral gavage twice daily for 8 days, day 1"}, "[8]": {"settings": "20 mg/kg oral gavage twice daily for 8 days, day 3"}, "[9]": {"settings": "20 mg/kg oral gavage twice daily for 8 days, day 5"}, "[10]": {"settings": "20 mg/kg oral gavage twice daily for 8 days, day 7"}, "[11]": {"settings": "20 mg/kg oral gavage twice daily for 8 days, day 9"}, "[12]": {"settings": "50 mg/kg oral gavage twice daily for 8 days, day 1"}, "[13]": {"settings": "50 mg/kg oral gavage twice daily for 8 days, day 3"}, "[14]": {"settings": "50 mg/kg oral gavage twice daily for 8 days, day 5"}, "[15]": {"settings": "50 mg/kg oral gavage twice daily for 8 days, day 7"}, "[16]": {"settings": "50 mg/kg oral gavage twice daily for 8 days, day 9"}, "[17]": {"settings": "10, 20, 50 mg/kg oral gavage twice daily for 8 consecutive days"}}, "data": [{"smiles": "Cn1cc(-c2cn3nccc3c(-c3cnn([C@]4(CC#N)CC5(C[C@H](C#N)C5)C4)c3)n2)cn1", "note": "(stereo partly drawn) [Compound of formula (I)]", "values": [{"measurement": "Body weight (g)/day", "setting": "[1]; [2]", "result": "19.77 ± 0.59", "unit": "g"}, {"measurement": "Ear comprehensive score/day", "setting": "[1]; [2]", "result": "0.00 ± 0.00"}, {"measurement": "Body weight (g)/day", "setting": "[1]; [3]", "result": "19.69 ± 0.57", "unit": "g"}, {"measurement": "Ear comprehensive score/day", "setting": "[1]; [3]", "result": "0.00 ± 0.00"}, {"measurement": "Body weight (g)/day", "setting": "[1]; [4]", "result": "20.02 ± 0.77", "unit": "g"}, {"measurement": "Ear comprehensive score/day", "setting": "[1]; [4]", "result": "0.60 ± 0.52"}, {"measurement": "Body weight (g)/day", "setting": "[1]; [5]", "result": "19.69 ± 0.63", "unit": "g"}, {"measurement": "Ear comprehensive score/day", "setting": "[1]; [5]", "result": "1.70 ± 1.06"}, {"measurement": "Body weight (g)/day", "setting": "[1]; [6]", "result": "20.04 ± 0.72", "unit": "g"}, {"measurement": "Ear comprehensive score/day", "setting": "[1]; [6]", "result": "2.60 ± 1.43"}, {"measurement": "Ear thickness (mm)/day", "setting": "[1]; [6]", "result": "0.430 ± 0.048", "unit": "mm"}, {"measurement": "Body weight (g)/day", "setting": "[1]; [7]", "result": "19.77 ± 0.54", "unit": "g"}, {"measurement": "Ear comprehensive score/day", "setting": "[1]; [7]", "result": "0.00 ± 0.00"}, {"measurement": "Body weight (g)/day", "setting": "[1]; [8]", "result": "19.85 ± 0.78", "unit": "g"}, {"measurement": "Ear comprehensive score/day", "setting": "[1]; [8]", "result": "0.00 ± 0.00"}, {"measurement": "Body weight (g)/day", "setting": "[1]; [9]", "result": "20.13 ± 0.78", "unit": "g"}, {"measurement": "Ear comprehensive score/day", "setting": "[1]; [9]", "result": "0.60 ± 0.70"}, {"measurement": "Body weight (g)/day", "setting": "[1]; [10]", "result": "19.80 ± 0.92", "unit": "g"}, {"measurement": "Ear comprehensive score/day", "setting": "[1]; [10]", "result": "1.40 ± 0.52"}, {"measurement": "Body weight (g)/day", "setting": "[1]; [11]", "result": "20.27 ± 0.90", "unit": "g"}, {"measurement": "Ear comprehensive score/day", "setting": "[1]; [11]", "result": "1.50 ± 0.71"}, {"measurement": "Ear thickness (mm)/day", "setting": "[1]; [7]", "result": "0.190 ± 0.009", "unit": "mm"}, {"measurement": "Ear thickness (mm)/day", "setting": "[1]; [10]", "result": "0.350 ± 0.025", "unit": "mm"}, {"measurement": "Body weight (g)/day", "setting": "[1]; [12]", "result": "19.78 ± 0.53", "unit": "g"}, {"measurement": "Ear comprehensive score/day", "setting": "[1]; [12]", "result": "0.00 ± 0.00"}, {"measurement": "Body weight (g)/day", "setting": "[1]; [13]", "result": "19.85 ± 0.68", "unit": "g"}, {"measurement": "Ear comprehensive score/day", "setting": "[1]; [13]", "result": "0.00 ± 0.00"}, {"measurement": "Body weight (g)/day", "setting": "[1]; [14]", "result": "20.41 ± 0.70", "unit": "g"}, {"measurement": "Ear comprehensive score/day", "setting": "[1]; [14]", "result": "0.10 ± 0.32"}, {"measurement": "Body weight (g)/day", "setting": "[1]; [15]", "result": "20.15 ± 0.56", "unit": "g"}, {"measurement": "Ear comprehensive score/day", "setting": "[1]; [15]", "result": "1.40 ± 0.70"}, {"measurement": "Body weight (g)/day", "setting": "[1]; [16]", "result": "20.28 ± 0.76", "unit": "g"}, {"measurement": "Ear comprehensive score/day", "setting": "[1]; [16]", "result": "1.00 ± 0.47"}, {"measurement": "effect on the body weight of the animals (in words)", "setting": "[1]; [17]", "result": "no significant effect"}, {"measurement": "effect on the weight of the modeled ear (in words)", "setting": "[1]; [17]", "result": "significantly reduce"}, {"measurement": "effect on the total score of the modeled ear (in words)", "setting": "[1]; 10, 20, 50 mg/kg oral gavage twice daily for 8 consecutive days, from D5 to D9", "result": "significantly reduce"}, {"measurement": "effect on the thickness of the modeled ear (in words)", "setting": "[1]; dose of 50 mg/kg, as early as D3", "result": "significantly reduces"}, {"measurement": "effect on the thickness of the modeled ear (in words)", "setting": "[1]; doses of 10 and 20 mg/kg, starting from day 5", "result": "significantly reduces"}, {"measurement": "IC50", "setting": "JAK3(h)", "result": 189, "unit": "nM"}]}]}
